Source: the kinase profiling compilation of Christmann-Franck et al. (2016)

Tests used:
Assay in all cases: radiometric filter-binding kinase assay
Conditions in all cases: compound 100.0 µM
[1] = test system: AKT2 (human), P31751 [S474D]
AURKA (human) = AURKA (human) (UniProt O14965)
AURKB (human) = AURKB (human) (UniProt Q96GD4)
BTK (human) = BTK (human) (UniProt Q06187)
CHEK2 (human) = CHEK2 (human) (UniProt O96017)
CLK2 (human) = CLK2 (human) (UniProt P49760)
CaMK1 (human) = CaMK1 (human) (UniProt Q14012)
Sequence of CaMK1 (human) (Q14012 whole entry, looked up): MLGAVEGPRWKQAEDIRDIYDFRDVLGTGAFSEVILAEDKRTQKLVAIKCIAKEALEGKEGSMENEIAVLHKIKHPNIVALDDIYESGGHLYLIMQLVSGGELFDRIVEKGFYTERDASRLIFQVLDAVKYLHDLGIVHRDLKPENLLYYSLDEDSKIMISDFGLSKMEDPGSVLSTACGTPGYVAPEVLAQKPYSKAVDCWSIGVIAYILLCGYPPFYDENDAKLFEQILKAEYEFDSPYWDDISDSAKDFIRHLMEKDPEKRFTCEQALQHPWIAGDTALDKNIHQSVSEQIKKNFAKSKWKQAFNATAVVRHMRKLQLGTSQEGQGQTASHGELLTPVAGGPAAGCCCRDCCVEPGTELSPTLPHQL

DYRK1A (human) = DYRK1A (human) (UniProt Q13627)
DYRK2 (human) = DYRK2 (human) (UniProt Q92630)
DYRK3 (human) = DYRK3 (human) (UniProt O43781)
ERBB4 (human) = ERBB4 (human) (UniProt Q15303)
FGFR1 (human) = FGFR1 (human) (UniProt P11362)
FLT1 (human) = FLT1 (human) (UniProt P17948)
GSK3B (human) = GSK3B (human) (UniProt P49841)
HIPK2 (human) = HIPK2 (human) (UniProt Q9H2X6)
Sequence of HIPK2 (human) (Q9H2X6 whole entry, looked up): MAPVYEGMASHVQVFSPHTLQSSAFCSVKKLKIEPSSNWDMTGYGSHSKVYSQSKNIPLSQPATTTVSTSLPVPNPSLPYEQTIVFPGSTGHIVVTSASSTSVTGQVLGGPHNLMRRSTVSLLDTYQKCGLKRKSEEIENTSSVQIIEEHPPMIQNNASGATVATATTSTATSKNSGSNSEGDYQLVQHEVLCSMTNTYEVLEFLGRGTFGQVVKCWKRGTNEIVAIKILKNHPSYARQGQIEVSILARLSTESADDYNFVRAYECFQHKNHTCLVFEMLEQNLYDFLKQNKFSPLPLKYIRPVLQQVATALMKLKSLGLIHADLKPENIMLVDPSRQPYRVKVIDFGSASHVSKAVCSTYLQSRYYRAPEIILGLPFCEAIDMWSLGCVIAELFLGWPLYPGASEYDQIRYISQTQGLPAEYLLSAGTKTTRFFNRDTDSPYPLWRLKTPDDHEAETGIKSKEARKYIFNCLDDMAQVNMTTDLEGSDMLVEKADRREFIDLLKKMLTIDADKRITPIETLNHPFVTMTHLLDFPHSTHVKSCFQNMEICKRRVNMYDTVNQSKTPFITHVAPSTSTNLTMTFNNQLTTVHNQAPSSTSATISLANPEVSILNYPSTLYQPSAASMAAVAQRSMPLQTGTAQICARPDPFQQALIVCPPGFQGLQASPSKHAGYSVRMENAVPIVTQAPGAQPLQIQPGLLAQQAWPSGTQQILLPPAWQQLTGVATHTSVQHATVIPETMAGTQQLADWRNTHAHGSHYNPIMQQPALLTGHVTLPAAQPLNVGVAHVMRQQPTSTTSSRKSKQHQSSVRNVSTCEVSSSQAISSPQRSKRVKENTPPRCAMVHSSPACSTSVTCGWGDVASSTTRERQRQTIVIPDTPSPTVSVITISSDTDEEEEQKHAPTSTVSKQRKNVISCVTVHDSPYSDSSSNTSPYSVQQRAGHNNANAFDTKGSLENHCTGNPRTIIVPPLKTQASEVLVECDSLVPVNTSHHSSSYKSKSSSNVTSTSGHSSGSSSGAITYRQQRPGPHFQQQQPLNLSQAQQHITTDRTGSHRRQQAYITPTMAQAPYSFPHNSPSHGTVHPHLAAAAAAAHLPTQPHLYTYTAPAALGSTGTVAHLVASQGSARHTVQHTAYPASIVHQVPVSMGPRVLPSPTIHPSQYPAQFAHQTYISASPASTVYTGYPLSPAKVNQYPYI

IKBKE (human) = IKBKE (human) (UniProt Q14164)
INSR (human) = INSR (human) (UniProt P06213)
Sequence of INSR (human) (P06213 whole entry, looked up): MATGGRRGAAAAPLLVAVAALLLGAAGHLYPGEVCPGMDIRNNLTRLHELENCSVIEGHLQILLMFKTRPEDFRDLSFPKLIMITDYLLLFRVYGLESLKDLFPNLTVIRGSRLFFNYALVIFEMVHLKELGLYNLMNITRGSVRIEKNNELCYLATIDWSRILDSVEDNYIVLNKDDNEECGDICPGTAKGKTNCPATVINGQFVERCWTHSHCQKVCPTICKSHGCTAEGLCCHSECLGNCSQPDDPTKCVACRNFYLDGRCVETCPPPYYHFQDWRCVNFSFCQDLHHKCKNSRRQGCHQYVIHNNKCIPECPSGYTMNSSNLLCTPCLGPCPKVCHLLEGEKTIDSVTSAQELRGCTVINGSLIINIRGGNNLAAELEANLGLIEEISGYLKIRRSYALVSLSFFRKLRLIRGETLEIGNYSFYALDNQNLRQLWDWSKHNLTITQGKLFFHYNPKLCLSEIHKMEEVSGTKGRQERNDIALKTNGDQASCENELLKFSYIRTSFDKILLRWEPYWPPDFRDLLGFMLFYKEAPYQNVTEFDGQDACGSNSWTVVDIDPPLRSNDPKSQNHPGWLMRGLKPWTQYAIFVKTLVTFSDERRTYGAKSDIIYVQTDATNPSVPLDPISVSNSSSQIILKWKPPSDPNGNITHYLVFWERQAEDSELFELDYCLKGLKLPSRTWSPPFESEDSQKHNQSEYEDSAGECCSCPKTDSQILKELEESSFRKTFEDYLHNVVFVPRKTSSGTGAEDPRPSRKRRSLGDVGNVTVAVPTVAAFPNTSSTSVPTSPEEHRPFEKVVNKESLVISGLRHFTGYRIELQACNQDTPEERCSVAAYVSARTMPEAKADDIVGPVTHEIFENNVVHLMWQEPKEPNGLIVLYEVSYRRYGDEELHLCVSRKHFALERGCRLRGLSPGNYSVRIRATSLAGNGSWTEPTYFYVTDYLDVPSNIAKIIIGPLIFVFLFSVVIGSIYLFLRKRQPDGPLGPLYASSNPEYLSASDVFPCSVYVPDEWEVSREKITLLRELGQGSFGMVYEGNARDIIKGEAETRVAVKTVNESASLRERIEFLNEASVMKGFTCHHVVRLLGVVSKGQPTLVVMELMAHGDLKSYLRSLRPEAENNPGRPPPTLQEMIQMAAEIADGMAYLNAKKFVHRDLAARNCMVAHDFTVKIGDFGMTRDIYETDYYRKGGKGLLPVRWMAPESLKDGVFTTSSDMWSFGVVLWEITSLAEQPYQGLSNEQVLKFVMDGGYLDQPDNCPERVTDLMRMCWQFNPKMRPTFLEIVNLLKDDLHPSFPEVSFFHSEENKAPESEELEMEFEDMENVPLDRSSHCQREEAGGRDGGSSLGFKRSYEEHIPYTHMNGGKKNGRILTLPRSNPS

INSRR (human) = INSRR (human) (UniProt P14616)
MAP3K11 (human) = MAP3K11 (human) (UniProt Q16584)
MAP3K9 (human) = MAP3K9 (human) (UniProt P80192)
MAPK1 (human) = MAPK1 (human) (UniProt P28482)
MAPK10 (human) = MAPK10 (human) (UniProt P53779)
MAPK11 (human) = MAPK11 (human) (UniProt Q15759)
MAPK12 (human) = MAPK12 (human) (UniProt P53778)
MAPK13 (human) = MAPK13 (human) (UniProt O15264)
MAPK14 (human) = MAPK14 (human) (UniProt Q16539)
MAPK3 (human) = MAPK3 (human) (UniProt P27361)
MAPK8 (human) = MAPK8 (human) (UniProt P45983)
MAPK9 (human) = MAPK9 (human) (UniProt P45984)
MAPKAPK2 (human) = MAPKAPK2 (human) (UniProt P49137)
MAPKAPK3 (human) = MAPKAPK3 (human) (UniProt Q16644)
MARK2 (human) = MARK2 (human) (UniProt Q7KZI7)
MINK1 (human) = MINK1 (human) (UniProt Q8N4C8)
NEK2 (human) = NEK2 (human) (UniProt P51955)
Sequence of NEK2 (human) (P51955 whole entry, looked up): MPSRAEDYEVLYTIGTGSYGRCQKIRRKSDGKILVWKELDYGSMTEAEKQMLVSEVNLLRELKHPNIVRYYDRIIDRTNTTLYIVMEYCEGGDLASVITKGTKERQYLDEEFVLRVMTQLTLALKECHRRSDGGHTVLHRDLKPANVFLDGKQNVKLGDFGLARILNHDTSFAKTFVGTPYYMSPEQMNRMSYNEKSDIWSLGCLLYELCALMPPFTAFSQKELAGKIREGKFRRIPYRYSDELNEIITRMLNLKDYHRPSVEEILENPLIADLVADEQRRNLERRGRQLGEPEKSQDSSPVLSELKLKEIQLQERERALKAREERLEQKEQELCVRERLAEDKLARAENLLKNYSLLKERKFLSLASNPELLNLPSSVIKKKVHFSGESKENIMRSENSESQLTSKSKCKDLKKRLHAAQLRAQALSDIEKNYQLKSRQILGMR

NUAK1 (human) = NUAK1 (human) (UniProt O60285)
PIM1 (human) = PIM1 (human) (UniProt P11309)
Sequence of PIM1 (human) (P11309 whole entry, looked up): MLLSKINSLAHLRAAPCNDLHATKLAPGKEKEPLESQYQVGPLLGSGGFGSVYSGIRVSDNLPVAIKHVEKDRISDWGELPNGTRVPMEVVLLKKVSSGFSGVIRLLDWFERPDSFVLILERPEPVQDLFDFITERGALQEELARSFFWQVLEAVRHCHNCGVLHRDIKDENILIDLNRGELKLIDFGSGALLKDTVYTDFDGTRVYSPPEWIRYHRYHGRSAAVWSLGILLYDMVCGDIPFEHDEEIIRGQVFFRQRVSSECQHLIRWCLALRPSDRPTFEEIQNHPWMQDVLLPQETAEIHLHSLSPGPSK

PIM3 (human) = PIM3 (human) (UniProt Q86V86)
PLK1 (human) = PLK1 (human) (UniProt P53350)
RIPK2 (human) = RIPK2 (human) (UniProt O43353)
RPS6KA3 KD1 KD2 (human) = RPS6KA3 KD1 KD2 (human) (UniProt P51812)
TTK (human) = TTK (human) (UniProt P33981)

Sequence of CLK2 (human) (P49760 whole entry, looked up): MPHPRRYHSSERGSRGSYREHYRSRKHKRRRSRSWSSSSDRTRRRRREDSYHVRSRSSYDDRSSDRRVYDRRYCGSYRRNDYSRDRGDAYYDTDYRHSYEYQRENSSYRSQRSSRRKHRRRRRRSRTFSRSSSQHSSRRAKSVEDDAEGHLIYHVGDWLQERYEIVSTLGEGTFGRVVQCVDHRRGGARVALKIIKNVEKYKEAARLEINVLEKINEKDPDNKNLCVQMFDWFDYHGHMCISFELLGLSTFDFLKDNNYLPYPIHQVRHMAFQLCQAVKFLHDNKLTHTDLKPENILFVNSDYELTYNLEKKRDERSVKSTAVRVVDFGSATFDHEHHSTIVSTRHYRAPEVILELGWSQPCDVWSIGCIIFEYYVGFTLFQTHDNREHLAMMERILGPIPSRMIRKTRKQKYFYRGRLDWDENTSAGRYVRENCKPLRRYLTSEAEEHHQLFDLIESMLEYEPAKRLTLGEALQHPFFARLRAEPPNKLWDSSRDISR
Sequence of AURKB (human) (Q96GD4 whole entry, looked up): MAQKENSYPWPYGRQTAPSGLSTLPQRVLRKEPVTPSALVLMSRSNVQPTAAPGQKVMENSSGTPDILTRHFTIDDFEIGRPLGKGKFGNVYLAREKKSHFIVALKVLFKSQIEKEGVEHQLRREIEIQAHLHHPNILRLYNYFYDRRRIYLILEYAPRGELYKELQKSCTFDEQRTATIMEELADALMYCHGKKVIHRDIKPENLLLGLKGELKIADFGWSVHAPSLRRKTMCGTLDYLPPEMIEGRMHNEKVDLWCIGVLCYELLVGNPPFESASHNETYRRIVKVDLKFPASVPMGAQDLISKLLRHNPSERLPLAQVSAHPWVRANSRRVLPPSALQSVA
Sequence of AURKA (human) (O14965 whole entry, looked up): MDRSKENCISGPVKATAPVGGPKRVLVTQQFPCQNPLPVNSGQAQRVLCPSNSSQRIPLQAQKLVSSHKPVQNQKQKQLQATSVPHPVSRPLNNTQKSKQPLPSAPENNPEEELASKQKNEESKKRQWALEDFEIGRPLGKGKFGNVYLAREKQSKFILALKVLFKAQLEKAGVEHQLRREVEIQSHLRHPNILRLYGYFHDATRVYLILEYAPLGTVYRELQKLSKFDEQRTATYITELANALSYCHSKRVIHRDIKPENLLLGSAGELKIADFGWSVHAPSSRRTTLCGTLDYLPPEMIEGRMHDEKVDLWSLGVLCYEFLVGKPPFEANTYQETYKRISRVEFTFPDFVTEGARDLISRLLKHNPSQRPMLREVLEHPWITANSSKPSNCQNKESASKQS

- residual activity [1]: 8%
- residual activity (AURKA (human)): 7%
- residual activity (AURKB (human)): 5%
- residual activity (BTK (human)): 21%
- residual activity (CHEK2 (human)): 41%
- residual activity (CLK2 (human)): 18%
- residual activity (CaMK1 (human)): 3%
- residual activity (DYRK1A (human)): 18%
- residual activity (DYRK2 (human)): 23%
- residual activity (DYRK3 (human)): 23%
- residual activity (ERBB4 (human)): 19%
- residual activity (FGFR1 (human)): 29%
- residual activity (FLT1 (human)): 12%
- residual activity (GSK3B (human)): 78%
- residual activity (HIPK2 (human)): 7%
- residual activity (IKBKE (human)): 9%
- residual activity (INSR (human)): 99%
- residual activity (INSRR (human)): 26%
- residual activity (MAP3K11 (human)): 5%
- residual activity (MAP3K9 (human)): 4%
- residual activity (MAPK1 (human)): 73%
- residual activity (MAPK10 (human)): 80%
- residual activity (MAPK11 (human)): 69%
- residual activity (MAPK12 (human)): 60%
- residual activity (MAPK13 (human)): 65%
- residual activity (MAPK14 (human)): 36%
- residual activity (MAPK3 (human)): 19%
- residual activity (MAPK8 (human)): 83%
- residual activity (MAPK9 (human)): 88%
- residual activity (MAPKAPK2 (human)): 8%
- residual activity (MAPKAPK3 (human)): 8%
- residual activity (MARK2 (human)): 66%
- residual activity (MINK1 (human)): 2%
- residual activity (NEK2 (human)): 19%
- residual activity (NUAK1 (human)): 14%
- residual activity (PIM1 (human)): 13%
- residual activity (PIM3 (human)): 6%
- residual activity (PLK1 (human)): 90%
- residual activity (RIPK2 (human)): 23%
- residual activity (RPS6KA3 KD1 KD2 (human)): 11%
- residual activity (TTK (human)): 44%
Compound: Cc1cccc(Nc2nc(-c3sc(N)nc3C)cs2)n1
